US12227500B2, “Substituted pyrrolo[2,3-b]pyridines for suppressing toxic endoplasmic reticulum stress” (THE TRUSTEES OF COLUMBIA UNIVERSITY IN THE CITY OF NEW YORK, priority 2018, dated 2025)
Read-outs that look alike come from different tables or passages of the source.

Assays:
Experiment in all cases: Radiolabeled ATP kinase assay, panel of 371 kinases (Table S6)
Format in all cases: biochemical
[1] = biological target: T1, panel of 371 human kinases (Homo sapiens, UniProt O15111); conditions: IKKa/CHUK; 0.1 μM; 10 μM ATP; read-out: % Enzyme Activity (relative to DMSO controls)
T1 construct: purchased Reaction Biology Corp
Excerpt: (§1) ; FIG. 38C). […]. Further targeted analyses, such as genetic knock-down or knock-out, may be warranted to parse the role of these additional kinases in our model of neurodegeneration.

[2] = biological target: T2, panel of 371 human kinases (Homo sapiens, UniProt O60674); conditions: JAK2; 0.1 μM; 10 μM ATP; read-out: % Enzyme Activity (relative to DMSO controls)
T2 construct: purchased Reaction Biology Corp
Excerpt: as §1

[3] = biological target: T3, panel of 371 human kinases (Homo sapiens, UniProt O75385); conditions: ULK1; 0.1 μM; 10 μM ATP; read-out: % Enzyme Activity (relative to DMSO controls)
T3 construct: purchased Reaction Biology Corp
T3 sequence (O75385 whole entry): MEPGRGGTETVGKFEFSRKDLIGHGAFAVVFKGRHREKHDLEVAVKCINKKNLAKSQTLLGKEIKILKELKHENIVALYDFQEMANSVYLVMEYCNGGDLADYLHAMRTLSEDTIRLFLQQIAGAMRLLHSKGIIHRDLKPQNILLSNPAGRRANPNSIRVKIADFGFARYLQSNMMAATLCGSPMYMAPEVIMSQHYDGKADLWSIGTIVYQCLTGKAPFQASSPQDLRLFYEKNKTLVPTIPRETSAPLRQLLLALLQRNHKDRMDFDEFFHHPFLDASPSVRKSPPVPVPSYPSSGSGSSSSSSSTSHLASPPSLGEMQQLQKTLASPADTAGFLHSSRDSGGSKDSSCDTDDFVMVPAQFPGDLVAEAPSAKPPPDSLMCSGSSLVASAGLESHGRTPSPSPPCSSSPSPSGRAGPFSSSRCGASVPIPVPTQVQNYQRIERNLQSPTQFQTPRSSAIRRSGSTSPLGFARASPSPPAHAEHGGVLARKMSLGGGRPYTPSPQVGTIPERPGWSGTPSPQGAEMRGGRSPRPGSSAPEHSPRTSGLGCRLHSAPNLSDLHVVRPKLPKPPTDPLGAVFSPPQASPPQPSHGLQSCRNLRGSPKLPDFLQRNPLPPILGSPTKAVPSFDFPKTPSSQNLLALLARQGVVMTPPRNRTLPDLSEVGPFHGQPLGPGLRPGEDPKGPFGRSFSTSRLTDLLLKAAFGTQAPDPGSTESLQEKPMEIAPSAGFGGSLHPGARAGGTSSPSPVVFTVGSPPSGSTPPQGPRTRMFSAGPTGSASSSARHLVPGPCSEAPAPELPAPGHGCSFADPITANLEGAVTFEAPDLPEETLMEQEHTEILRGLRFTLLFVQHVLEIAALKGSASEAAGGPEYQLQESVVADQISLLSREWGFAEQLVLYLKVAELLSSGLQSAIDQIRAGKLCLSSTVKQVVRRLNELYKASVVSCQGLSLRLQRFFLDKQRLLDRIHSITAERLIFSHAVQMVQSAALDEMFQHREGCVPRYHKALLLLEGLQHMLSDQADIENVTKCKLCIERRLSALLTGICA
Excerpt: as §1

[4] = biological target: T4, panel of 371 human kinases (Homo sapiens, UniProt O95747); conditions: OSR1/OXSR1; 0.1 μM; 10 μM ATP; read-out: % Enzyme Activity (relative to DMSO controls)
T4 construct: purchased Reaction Biology Corp
Excerpt: as §1

[5] = biological target: T5, panel of 371 human kinases (Homo sapiens, UniProt P04049); conditions: RAF1; 0.1 μM; 10 μM ATP; read-out: % Enzyme Activity (relative to DMSO controls)
T5 construct: purchased Reaction Biology Corp
T5 sequence (P04049 whole entry): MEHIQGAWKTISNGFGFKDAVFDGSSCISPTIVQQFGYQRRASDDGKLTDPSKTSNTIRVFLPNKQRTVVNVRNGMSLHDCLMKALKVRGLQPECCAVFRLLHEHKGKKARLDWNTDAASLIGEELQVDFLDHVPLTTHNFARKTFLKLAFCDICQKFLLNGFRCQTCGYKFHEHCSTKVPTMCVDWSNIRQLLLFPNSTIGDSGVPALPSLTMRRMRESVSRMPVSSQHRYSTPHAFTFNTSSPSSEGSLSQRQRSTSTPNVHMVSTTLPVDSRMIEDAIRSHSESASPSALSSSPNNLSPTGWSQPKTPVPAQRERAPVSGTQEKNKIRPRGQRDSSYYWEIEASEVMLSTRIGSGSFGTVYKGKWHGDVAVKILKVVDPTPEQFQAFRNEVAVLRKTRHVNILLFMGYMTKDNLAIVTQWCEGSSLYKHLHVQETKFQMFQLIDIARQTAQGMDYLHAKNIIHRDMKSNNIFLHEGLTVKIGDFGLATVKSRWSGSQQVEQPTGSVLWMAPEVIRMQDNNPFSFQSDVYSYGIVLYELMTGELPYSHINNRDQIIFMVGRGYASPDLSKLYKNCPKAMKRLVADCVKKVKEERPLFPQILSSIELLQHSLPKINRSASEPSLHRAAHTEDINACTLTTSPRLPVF
Excerpt: as §1

[6] = biological target: T6, panel of 371 human kinases (Homo sapiens, UniProt P11802); conditions: 0.1 μM, 10 μM ATP, read-out: % Enzyme Activity (relative to DMSO controls)
T6 construct: purchased Reaction Biology Corp
T6 sequence (P11802 whole entry): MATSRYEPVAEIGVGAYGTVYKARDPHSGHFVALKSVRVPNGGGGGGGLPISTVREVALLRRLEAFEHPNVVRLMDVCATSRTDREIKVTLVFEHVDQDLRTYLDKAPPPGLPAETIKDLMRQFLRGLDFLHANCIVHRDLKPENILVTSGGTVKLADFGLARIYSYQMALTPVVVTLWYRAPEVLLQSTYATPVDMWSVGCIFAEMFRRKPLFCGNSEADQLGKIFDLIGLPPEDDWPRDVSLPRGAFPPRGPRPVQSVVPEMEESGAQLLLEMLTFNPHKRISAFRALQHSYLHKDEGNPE
Excerpt: as §1

[7] = biological target: T7, panel of 371 human kinases (Homo sapiens, UniProt P15735); conditions: PHKg2; 0.1 μM; 10 μM ATP; read-out: % Enzyme Activity (relative to DMSO controls)
T7 construct: purchased Reaction Biology Corp
Excerpt: as §1

[8] = biological target: T8, panel of 371 human kinases (Homo sapiens, UniProt P23458); conditions: JAK1; 0.1 μM; 10 μM ATP; read-out: % Enzyme Activity (relative to DMSO controls)
T8 construct: purchased Reaction Biology Corp
Excerpt: as §1

[9] = biological target: T9, panel of 371 human kinases (Homo sapiens, UniProt P27361); conditions: ERK1; 0.1 μM; 10 μM ATP; read-out: % Enzyme Activity (relative to DMSO controls)
T9 construct: purchased Reaction Biology Corp
Excerpt: as §1

[10] = biological target: T10, panel of 371 human kinases (Homo sapiens, UniProt P49137); conditions: MAPKAPK2; 0.1 μM; 10 μM ATP; read-out: % Enzyme Activity (relative to DMSO controls)
T10 construct: purchased Reaction Biology Corp
Excerpt: as §1

[11] = biological target: T11, panel of 371 human kinases (Homo sapiens, UniProt P49674); conditions: CK1epsilon; 0.1 μM; 10 μM ATP; read-out: % Enzyme Activity (relative to DMSO controls)
T11 construct: purchased Reaction Biology Corp
T11 sequence (P49674 whole entry): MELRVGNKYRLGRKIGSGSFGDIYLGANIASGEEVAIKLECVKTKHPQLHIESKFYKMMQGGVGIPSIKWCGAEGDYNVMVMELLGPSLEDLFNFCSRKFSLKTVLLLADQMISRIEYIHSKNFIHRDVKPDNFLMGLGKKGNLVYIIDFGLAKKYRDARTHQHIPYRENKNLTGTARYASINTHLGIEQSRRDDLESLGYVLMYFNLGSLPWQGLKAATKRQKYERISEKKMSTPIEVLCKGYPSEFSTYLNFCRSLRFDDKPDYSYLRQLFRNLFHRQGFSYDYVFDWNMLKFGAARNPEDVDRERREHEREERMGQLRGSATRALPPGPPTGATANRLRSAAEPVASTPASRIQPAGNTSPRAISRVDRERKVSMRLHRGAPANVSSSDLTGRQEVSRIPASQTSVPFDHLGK
Excerpt: as §1

[12] = biological target: T12, panel of 371 human kinases (Homo sapiens, UniProt P49841); conditions: GSK3b; 0.1 μM; 10 μM ATP; read-out: % Enzyme Activity (relative to DMSO controls)
T12 construct: purchased Reaction Biology Corp
Excerpt: as §1

[13] = biological target: T13, panel of 371 human kinases (Homo sapiens, UniProt P52333); conditions: JAK3; 0.1 μM; 10 μM ATP; read-out: % Enzyme Activity (relative to DMSO controls)
T13 construct: purchased Reaction Biology Corp
Excerpt: as §1

[14] = biological target: T14, panel of 371 human kinases (Homo sapiens, UniProt P53778); conditions: P38g; 0.1 μM; 10 μM ATP; read-out: % Enzyme Activity (relative to DMSO controls)
T14 construct: purchased Reaction Biology Corp
Excerpt: as §1

[15] = biological target: T15, panel of 371 human kinases (Homo sapiens, UniProt Q14164); conditions: IKKe/IKBKE; 0.1 μM; 10 μM ATP; read-out: % Enzyme Activity (relative to DMSO controls)
T15 construct: purchased Reaction Biology Corp
T15 sequence (Q14164 whole entry): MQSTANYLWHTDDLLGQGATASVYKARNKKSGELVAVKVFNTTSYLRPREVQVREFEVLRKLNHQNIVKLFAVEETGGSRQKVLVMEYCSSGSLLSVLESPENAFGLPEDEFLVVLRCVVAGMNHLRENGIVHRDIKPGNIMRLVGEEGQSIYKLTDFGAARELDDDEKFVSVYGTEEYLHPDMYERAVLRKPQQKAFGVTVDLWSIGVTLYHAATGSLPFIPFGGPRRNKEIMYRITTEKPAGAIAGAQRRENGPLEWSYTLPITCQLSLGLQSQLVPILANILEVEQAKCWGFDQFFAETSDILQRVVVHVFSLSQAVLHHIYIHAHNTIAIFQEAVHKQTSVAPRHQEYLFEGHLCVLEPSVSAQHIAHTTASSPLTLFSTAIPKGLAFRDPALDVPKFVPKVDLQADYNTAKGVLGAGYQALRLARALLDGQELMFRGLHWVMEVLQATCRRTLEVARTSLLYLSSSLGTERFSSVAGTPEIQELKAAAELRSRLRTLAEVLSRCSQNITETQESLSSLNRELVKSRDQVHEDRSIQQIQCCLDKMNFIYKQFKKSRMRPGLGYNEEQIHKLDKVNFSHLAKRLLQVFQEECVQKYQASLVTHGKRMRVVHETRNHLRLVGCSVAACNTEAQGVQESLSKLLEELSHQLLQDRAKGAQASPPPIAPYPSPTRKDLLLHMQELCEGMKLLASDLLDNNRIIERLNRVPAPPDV
Excerpt: as §1

[16] = biological target: T16, panel of 371 human kinases (Homo sapiens, UniProt Q15746); conditions: MLCK/MYLK; 0.1 μM; 10 μM ATP; read-out: % Enzyme Activity (relative to DMSO controls)
T16 construct: purchased Reaction Biology Corp
Excerpt: as §1

[17] = biological target: T17, panel of 371 human kinases (Homo sapiens, UniProt Q6P5Z2); conditions: PKN3/PRK3; 0.1 μM; 10 μM ATP; read-out: % Enzyme Activity (relative to DMSO controls)
T17 construct: purchased Reaction Biology Corp
T17 sequence (Q6P5Z2 whole entry): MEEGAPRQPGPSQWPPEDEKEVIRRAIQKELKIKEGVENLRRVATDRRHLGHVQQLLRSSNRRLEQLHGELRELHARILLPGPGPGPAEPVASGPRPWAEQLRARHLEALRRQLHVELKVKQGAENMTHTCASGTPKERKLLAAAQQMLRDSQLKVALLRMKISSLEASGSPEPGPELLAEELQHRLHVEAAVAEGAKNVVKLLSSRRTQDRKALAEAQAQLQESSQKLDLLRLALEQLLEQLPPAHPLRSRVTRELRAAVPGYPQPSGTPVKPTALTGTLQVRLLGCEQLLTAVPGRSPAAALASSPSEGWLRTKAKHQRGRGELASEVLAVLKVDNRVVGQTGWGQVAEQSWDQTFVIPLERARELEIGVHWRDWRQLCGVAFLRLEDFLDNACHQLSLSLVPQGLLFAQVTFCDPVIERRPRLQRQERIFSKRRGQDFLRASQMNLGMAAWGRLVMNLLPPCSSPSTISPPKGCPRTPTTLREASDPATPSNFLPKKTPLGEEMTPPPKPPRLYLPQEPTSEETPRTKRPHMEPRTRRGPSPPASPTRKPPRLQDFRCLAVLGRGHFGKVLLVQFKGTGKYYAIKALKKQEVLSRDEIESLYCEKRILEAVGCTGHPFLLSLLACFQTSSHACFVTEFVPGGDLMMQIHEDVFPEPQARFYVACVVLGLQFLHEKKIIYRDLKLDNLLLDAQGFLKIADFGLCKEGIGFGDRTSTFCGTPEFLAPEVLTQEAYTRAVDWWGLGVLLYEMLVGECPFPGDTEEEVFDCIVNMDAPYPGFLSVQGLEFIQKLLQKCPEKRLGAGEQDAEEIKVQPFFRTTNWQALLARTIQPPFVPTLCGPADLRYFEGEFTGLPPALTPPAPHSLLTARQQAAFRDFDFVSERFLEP
Excerpt: as §1

[18] = biological target: T18, panel of 371 human kinases (Homo sapiens, UniProt Q8IU85); conditions: CAMK1d; 0.1 μM; 10 μM ATP; read-out: % Enzyme Activity (relative to DMSO controls)
T18 construct: purchased Reaction Biology Corp
Excerpt: as §1

[19] = biological target: T19, panel of 371 human kinases (Homo sapiens, UniProt Q8IVT5); conditions: KSR1; 0.1 μM; 10 μM ATP; read-out: % Enzyme Activity (relative to DMSO controls)
T19 construct: purchased Reaction Biology Corp
T19 sequence (Q8IVT5 whole entry): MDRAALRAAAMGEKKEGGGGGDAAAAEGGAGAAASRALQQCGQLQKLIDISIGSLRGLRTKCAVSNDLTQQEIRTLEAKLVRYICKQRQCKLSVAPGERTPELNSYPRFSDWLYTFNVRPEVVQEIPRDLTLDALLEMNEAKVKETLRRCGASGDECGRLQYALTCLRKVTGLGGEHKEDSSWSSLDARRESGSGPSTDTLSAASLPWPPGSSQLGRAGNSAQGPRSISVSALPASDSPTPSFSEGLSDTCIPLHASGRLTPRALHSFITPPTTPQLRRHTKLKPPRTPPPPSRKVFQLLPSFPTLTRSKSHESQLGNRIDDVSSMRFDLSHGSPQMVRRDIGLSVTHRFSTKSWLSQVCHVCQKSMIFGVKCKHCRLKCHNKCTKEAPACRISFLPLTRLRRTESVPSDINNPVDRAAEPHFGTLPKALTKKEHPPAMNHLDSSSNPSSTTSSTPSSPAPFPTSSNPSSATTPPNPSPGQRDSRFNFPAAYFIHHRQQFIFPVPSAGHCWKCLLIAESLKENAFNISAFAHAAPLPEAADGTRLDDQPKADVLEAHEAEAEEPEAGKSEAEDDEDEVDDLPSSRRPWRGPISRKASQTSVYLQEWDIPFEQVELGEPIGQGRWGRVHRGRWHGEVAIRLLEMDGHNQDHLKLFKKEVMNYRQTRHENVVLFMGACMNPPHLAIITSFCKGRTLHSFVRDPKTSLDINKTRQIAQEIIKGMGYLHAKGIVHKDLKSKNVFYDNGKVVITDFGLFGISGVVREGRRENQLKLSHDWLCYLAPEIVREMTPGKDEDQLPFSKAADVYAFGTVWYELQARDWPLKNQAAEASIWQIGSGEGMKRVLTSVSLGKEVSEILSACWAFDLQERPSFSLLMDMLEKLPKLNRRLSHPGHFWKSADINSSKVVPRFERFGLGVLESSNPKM
Excerpt: as §1

[20] = biological target: T20, panel of 371 human kinases (Homo sapiens, UniProt Q9H0K1); conditions: SIK2; 0.1 μM; 10 μM ATP; read-out: % Enzyme Activity (relative to DMSO controls)
T20 construct: purchased Reaction Biology Corp
Excerpt: as §1

[21] = biological target: T21, panel of 371 human kinases (Homo sapiens, UniProt Q9NRH2); conditions: SNRK; 0.1 μM; 10 μM ATP; read-out: % Enzyme Activity (relative to DMSO controls)
T21 construct: purchased Reaction Biology Corp
Excerpt: as §1

[22] = biological target: T22, panel of 371 human kinases (Homo sapiens, UniProt Q9UM73); conditions: ALK; 0.1 μM; 10 μM ATP; read-out: % Enzyme Activity (relative to DMSO controls)
T22 construct: purchased Reaction Biology Corp
Excerpt: as §1

[23] = biological target: T23, panel of 371 human kinases (Homo sapiens, UniProt Q9Y2U5); conditions: MEKK2; 0.1 μM; 10 μM ATP; read-out: % Enzyme Activity (relative to DMSO controls)
T23 construct: purchased Reaction Biology Corp
Excerpt: as §1

[24] = biological target: T24, panel of 371 human kinases (Homo sapiens, UniProt Q9Y6E0); conditions: MST3/STK24; 0.1 μM; 10 μM ATP; read-out: % Enzyme Activity (relative to DMSO controls)
T24 construct: purchased Reaction Biology Corp
Excerpt: as §1

Row | SMILES | remaining activity at 0.1 µM [1] [%] | remaining activity at 0.1 µM [2] [%] | remaining activity at 0.1 µM [3] [%] | remaining activity at 0.1 µM [4] [%] | remaining activity at 0.1 µM [5] [%] | remaining activity at 0.1 µM ([6]; CDK4/cyclin D1) [%] | remaining activity at 0.1 µM ([6]; CDK4/cyclin D3) [%] | remaining activity at 0.1 µM [7] [%] | remaining activity at 0.1 µM [8] [%] | remaining activity at 0.1 µM [9] [%] | remaining activity at 0.1 µM [10] [%] | remaining activity at 0.1 µM [11] [%] | remaining activity at 0.1 µM [12] [%] | remaining activity at 0.1 µM [13] [%] | remaining activity at 0.1 µM [14] [%] | remaining activity at 0.1 µM [15] [%] | remaining activity at 0.1 µM [16] [%] | remaining activity at 0.1 µM [17] [%] | remaining activity at 0.1 µM [18] [%] | remaining activity at 0.1 µM [19] [%] | also measured
1 | CN1CCN(Cc2ccc(-c3cnc4[nH]cc(-c5ccc6[nH]ccc6c5)c4c3)cc2)CC1 [Compound 1, 3-(1H-Indol-5-yl)-5-(4-((4-methylpiperazin-1-yl)methyl)phenyl)-1H-pyrrolo[2,3-b]pyridine, reference compound] | 96.8 | 90.2 | 89.7 | 102 | 104 | 69.2 | 90.9 | 86 | 103 | 86 | 96.9 | 117 | 99 | 90.9 | 108 | 82.5 | 93.4 | 84.7 | 101 | 98 | remaining activity at 0.1 µM [20]: 83.2%; remaining activity at 0.1 µM [21]: 102%; remaining activity at 0.1 µM [22]: 73.8%; remaining activity at 0.1 µM [23]: 102%; remaining activity at 0.1 µM [24]: 71.2%
2 | OCCN1CCN(Cc2ccc(-c3cnc4[nH]cc(-c5cccc(Cl)c5)c4c3)cc2)CC1 [Compound 12k, 2-(4-(4-(3-(3-Chlorophenyl)-1H-pyrrolo[2,3-b]pyridin-5-yl)benzyl)piperazin-1-yl)ethan-1-ol] | 101 | 93 | 88.8 | 97.1 | 105 | 56.4 | 67.2 | 95.2 | 90.5 | 92.8 | 99.6 | 103 | 89.6 | 76.2 | 99.7 | 63.8 | 99.1 | 93.7 | 96.8 | 97.3 | remaining activity at 0.1 µM [20]: 59.8%; remaining activity at 0.1 µM [21]: 43.1%; remaining activity at 0.1 µM [22]: 85.3%; remaining activity at 0.1 µM [23]: 93.3%; remaining activity at 0.1 µM [24]: 78.4%
